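Protocol summary: plate cells (96-well), add compound at 5 concentrations, incubate 48 h, interpolate endpoints linearly. Here, GI50 denotes the concentration required for 50% inhibition of growth.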 Activity calls are given as the source filed them. Rule as the data show it: active = GI50 up to about 1.1 µM and inactive = higher. Non-standard residues stand in square brackets, D forms with d. Residues, ends and D or L forms follow the SMILES beside them.
Legend:
Assay in all cases: NCI-60 cell line screen, 48 h
A549 = system: A549
EKVX = system: EKVX
OVCAR-3 = system: OVCAR-3
PC-3 = system: PC-3
HCT-15 = system: HCT-15
SK-OV-3 = system: SK-OV-3
SF-268 = system: SF-268
MOLT-4 = system: MOLT-4
KM12 = system: KM12
SK-MEL-2 = system: SK-MEL-2
ACHN = system: ACHN
COLO 205 = system: COLO 205
SN12C = system: SN12C
A498 = system: A498
NCI-H226 = system: NCI-H226
UACC-257 = system: UACC-257
T47D = system: T47D
MDA-N = system: MDA-N
SR = system: SR
SNB-75 = system: SNB-75

Row | SMILES | GI50 (A549) | GI50 (EKVX) | GI50 (OVCAR-3) | GI50 (PC-3) | GI50 (HCT-15) [µM] | GI50 (SK-OV-3) | GI50 (SF-268) | GI50 (MOLT-4) | GI50 (KM12) | GI50 (SK-MEL-2) | GI50 (ACHN) | GI50 (COLO 205) | GI50 (SN12C) | GI50 (A498) | GI50 (NCI-H226) | GI50 (UACC-257) | GI50 (T47D) | GI50 (MDA-N) | GI50 (SR) | GI50 (SNB-75)
1 | COc1ccccc1NC(=O)C(C#N)=C(SC)SC | > 100 µM (inactive) | > 100 µM (inactive) | > 100 µM (inactive) | > 100 µM (inactive) | > 100 | > 100 µM (inactive) | > 100 µM (inactive) | > 100 µM (inactive) | 6.78 µM (inactive) | > 100 µM (inactive) | > 100 µM (inactive) | > 100 µM (inactive) | > 100 µM (inactive) | > 100 µM (inactive) | > 100 µM (inactive) | > 100 µM (inactive) | 30.2 µM (inactive) | > 100 µM (inactive) | > 100 µM (inactive) | 
2 | CSCC[C@H](NC(=O)[C@@H](N)CC(N)=O)C(=O)N[C@@H](Cc1c[nH]c2ccccc12)C(=O)N[C@@H](CCC(N)=O)C(=O)N[C@@H](CCC(=O)O)C(=O)N[C@H](C(=O)NCC(=O)N[C@@H](CCCCN)C(=O)N[C@H](C)C(=O)O)C(C)C (H-NMWQEVGK[dA]-OH) | > 100 µM (inactive) | > 100 µM (inactive) | > 100 µM (inactive) | > 100 µM (inactive) | > 100 | > 100 µM (inactive) | > 100 µM (inactive) | > 100 µM (inactive) | > 100 µM (inactive) |  | > 100 µM (inactive) | > 100 µM (inactive) | > 100 µM (inactive) | > 100 µM (inactive) | > 100 µM (inactive) | > 100 µM (inactive) | > 100 µM (inactive) | > 100 µM (inactive) |  | > 100 µM (inactive)
3 | COC(=O)CNC(=O)Nc1cc(N2C(=O)ON3C2C(C)(C)N(O)C3(C)C)ccc1C (configuration not stated) | > 100 µM (inactive) | > 100 µM (inactive) | > 100 µM (inactive) | > 100 µM (inactive) | 66.5 | > 100 µM (inactive) | > 100 µM (inactive) | > 100 µM (inactive) | > 100 µM (inactive) | 59.4 µM (inactive) | > 100 µM (inactive) | > 100 µM (inactive) | > 100 µM (inactive) |  | > 100 µM (inactive) | > 100 µM (inactive) | > 100 µM (inactive) | > 100 µM (inactive) | > 100 µM (inactive) | > 100 µM (inactive)
4 | O=C(O)CNn1c(SCC(=O)O)nnc(/C=C/c2c(O)ccc3ccccc23)c1=O | 44.2 µM (inactive) | 14.3 µM (inactive) | 22.7 µM (inactive) | 77.3 µM (inactive) | 17.6 | 5.53 µM (inactive) | 24.4 µM (inactive) |  | 31.6 µM (inactive) | 61.8 µM (inactive) | 33.8 µM (inactive) | 34.4 µM (inactive) | 11.2 µM (inactive) | 32.7 µM (inactive) |  | 35.9 µM (inactive) | 19.5 µM (inactive) | 48.4 µM (inactive) | 32.3 µM (inactive) | 
5 | CCN(CC)CCOCCn1c2c(c3ccccc31)CCCC2 | 23.9 µM (inactive) | 40.2 µM (inactive) | 35.5 µM (inactive) | 17.8 µM (inactive) | 16.3 | 27.4 µM (inactive) | 36.1 µM (inactive) | 15.8 µM (inactive) | 34.5 µM (inactive) | 15.7 µM (inactive) | 19.1 µM (inactive) | 17.7 µM (inactive) | 18.3 µM (inactive) |  | 26.4 µM (inactive) | 21.9 µM (inactive) | 20.6 µM (inactive) | 17.2 µM (inactive) | 16.3 µM (inactive) | 34.8 µM (inactive)
6 | O=Cc1ccc2ccocc1-2 | > 100 µM (inactive) | > 100 µM (inactive) | > 100 µM (inactive) | > 100 µM (inactive) | > 100 | > 100 µM (inactive) | > 100 µM (inactive) | > 100 µM (inactive) | > 100 µM (inactive) | > 100 µM (inactive) | > 100 µM (inactive) | > 100 µM (inactive) | > 100 µM (inactive) | > 100 µM (inactive) | > 100 µM (inactive) | > 100 µM (inactive) | > 100 µM (inactive) | > 100 µM (inactive) | > 100 µM (inactive) | 
7 | CO/N=C(\C)CCC#Cc1ccccc1C(=O)OC | > 10 µM (inactive) | > 10 µM (inactive) | > 10 µM (inactive) | > 10 µM (inactive) | > 10 | > 10 µM (inactive) | > 10 µM (inactive) | > 10 µM (inactive) | > 10 µM (inactive) | > 10 µM (inactive) | > 10 µM (inactive) | > 10 µM (inactive) | > 10 µM (inactive) | > 10 µM (inactive) | > 10 µM (inactive) | > 10 µM (inactive) | > 10 µM (inactive) | > 10 µM (inactive) | > 10 µM (inactive) | 
8 | COC(=O)C1=C(C)NC(C)=C([N+](=O)[O-])C1c1cccc(N=O)c1 (configuration not stated) | 18.9 µM (inactive) | 21.1 µM (inactive) | 15 µM (inactive) | 17.9 µM (inactive) | 14.2 | 21.9 µM (inactive) | 17.5 µM (inactive) | 3.18 µM (inactive) | 13.6 µM (inactive) | 18.2 µM (inactive) | 12.3 µM (inactive) | 15.7 µM (inactive) | 19.7 µM (inactive) | 24.4 µM (inactive) | 22 µM (inactive) | 12.5 µM (inactive) | 12.1 µM (inactive) | 10 µM (inactive) | 3.36 µM (inactive) | 
9 | CCOC(=O)C(NC(=O)CC)(Nc1ccc(S(=O)(=O)Nc2onc(C)c2C)cc1)C(F)(F)F (configuration not stated) | > 100 µM (inactive) | > 100 µM (inactive) | > 100 µM (inactive) | > 100 µM (inactive) | > 100 | > 100 µM (inactive) | > 100 µM (inactive) | > 100 µM (inactive) | > 100 µM (inactive) | > 100 µM (inactive) | > 100 µM (inactive) | > 100 µM (inactive) | > 100 µM (inactive) |  | > 100 µM (inactive) | > 100 µM (inactive) | > 100 µM (inactive) | > 100 µM (inactive) | > 100 µM (inactive) | 14.9 µM (inactive)
10 | O=C(O)CC[N+]1=CCC(c2ccccc2)(c2ccccc2)O1 | > 100 µM (inactive) | > 100 µM (inactive) | > 100 µM (inactive) | > 100 µM (inactive) | > 100 | > 100 µM (inactive) | > 100 µM (inactive) | > 100 µM (inactive) |  | > 100 µM (inactive) | > 100 µM (inactive) | > 100 µM (inactive) | > 100 µM (inactive) | > 100 µM (inactive) | > 100 µM (inactive) | > 100 µM (inactive) | > 100 µM (inactive) | > 100 µM (inactive) |  | 44.1 µM (inactive)
11 | O=C(CCc1cccc(O)c1)NCCc1cccc(OCc2ccccc2)c1 | 28.1 µM (inactive) | 21.5 µM (inactive) | 6.55 µM (inactive) | 10.3 µM (inactive) | 19.9 | 23.6 µM (inactive) | 15.3 µM (inactive) | 11 µM (inactive) | 6.81 µM (inactive) | 15.6 µM (inactive) | 25.4 µM (inactive) | 19.7 µM (inactive) | 18.8 µM (inactive) | 25.4 µM (inactive) | 11.4 µM (inactive) | 16.3 µM (inactive) | 18.8 µM (inactive) | 18.6 µM (inactive) | 25 µM (inactive) | 
12 | COC(=O)[C@@]1(C)CCC[C@]2(C(=O)O)C3Cc4occc4[C@H](C)[C@@H]3CCC21 (some centres not stated) | 38.5 µM (inactive) | 39.1 µM (inactive) | > 100 µM (inactive) | 23.7 µM (inactive) | > 10 | 56.1 µM (inactive) | > 100 µM (inactive) | 29.2 µM (inactive) | 49.3 µM (inactive) | 51.2 µM (inactive) | 44.2 µM (inactive) |  | 28.9 µM (inactive) | 68.7 µM (inactive) | 84.3 µM (inactive) |  | 40.6 µM (inactive) | 75.9 µM (inactive) | 59.7 µM (inactive) | 
13 | Cn1c(N)c(/C=C/C(=O)Oc2ccccc2)c(=O)n(C)c1=O | > 100 µM (inactive) | > 100 µM (inactive) | > 100 µM (inactive) | > 100 µM (inactive) | > 100 | 56.5 µM (inactive) | 31.7 µM (inactive) | > 100 µM (inactive) | > 100 µM (inactive) | > 100 µM (inactive) | 50.7 µM (inactive) | > 100 µM (inactive) | 45.6 µM (inactive) | > 100 µM (inactive) | 47.4 µM (inactive) | > 100 µM (inactive) | 85.3 µM (inactive) | > 100 µM (inactive) |  | 24.2 µM (inactive)
14 | CCCN(CCC)C(=S)N/N=C/c1ccccn1 | < 0.0138 µM (active) | 0.046 µM (active) | < 0.01 µM (active) | < 0.01 µM (active) | < 0.01 | < 0.012 µM (active) | < 0.0135 µM (active) | < 0.01 µM (active) | < 0.0139 µM (active) | < 0.0385 µM (active) | < 0.01 µM (active) | < 0.0186 µM (active) | < 0.0195 µM (active) | 0.0372 µM (active) |  | < 0.01 µM (active) | < 0.01 µM (active) | 0.0989 µM (active) | < 0.01 µM (active) | 0.0586 µM (active)
15 | CCCCCCC(O)C(=O)OC1C2C(CC1(C)C)C(O)C13OC1C(O)C1(CO1)[C@@]23C (some centres not stated) | 28.1 µM (inactive) | 54.5 µM (inactive) | 32.1 µM (inactive) | 17.3 µM (inactive) | 81.7 | 61.2 µM (inactive) | 20.1 µM (inactive) | 16.1 µM (inactive) | 47.6 µM (inactive) |  | > 10 µM (inactive) | 49.2 µM (inactive) | 54.7 µM (inactive) |  |  | 42.3 µM (inactive) | 62.5 µM (inactive) | 45.4 µM (inactive) | 52.2 µM (inactive) | 8.83 µM (inactive)

— ChEMBL document CHEMBL1201862, “PubChem BioAssay data set” (2004)
